In US7928140B2, “Benzothiazole PI3 kinase modulators for cancer treatment” (Amgen Inc., priority 2007, dated 2011):

Legend:
PI3K β = biological target: T1, PI3K β (Homo sapiens, UniProt P42338); assay: In vitro PI3 kinase enzyme assay (beta), ATP loss, bioluminescence; type: biochemical; conditions: read-out: PI3Kβ ATP loss IC50;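 also: purified p110β/p85 heterodimer with PtdIns(4,5)P2 as acceptor, incubated at room temperature, leftover ATP read by luminescence, inhibition scaled to compound-free wells with and without enzyme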
T1 construct: Full length p110 subunits of PI3K α, β and δ, N-terminally labeled with polyHis tag; polyHis (N); made in house; host or cells: Sf9 insect cells (baculovirus)
T1 sequence (P42338 whole entry): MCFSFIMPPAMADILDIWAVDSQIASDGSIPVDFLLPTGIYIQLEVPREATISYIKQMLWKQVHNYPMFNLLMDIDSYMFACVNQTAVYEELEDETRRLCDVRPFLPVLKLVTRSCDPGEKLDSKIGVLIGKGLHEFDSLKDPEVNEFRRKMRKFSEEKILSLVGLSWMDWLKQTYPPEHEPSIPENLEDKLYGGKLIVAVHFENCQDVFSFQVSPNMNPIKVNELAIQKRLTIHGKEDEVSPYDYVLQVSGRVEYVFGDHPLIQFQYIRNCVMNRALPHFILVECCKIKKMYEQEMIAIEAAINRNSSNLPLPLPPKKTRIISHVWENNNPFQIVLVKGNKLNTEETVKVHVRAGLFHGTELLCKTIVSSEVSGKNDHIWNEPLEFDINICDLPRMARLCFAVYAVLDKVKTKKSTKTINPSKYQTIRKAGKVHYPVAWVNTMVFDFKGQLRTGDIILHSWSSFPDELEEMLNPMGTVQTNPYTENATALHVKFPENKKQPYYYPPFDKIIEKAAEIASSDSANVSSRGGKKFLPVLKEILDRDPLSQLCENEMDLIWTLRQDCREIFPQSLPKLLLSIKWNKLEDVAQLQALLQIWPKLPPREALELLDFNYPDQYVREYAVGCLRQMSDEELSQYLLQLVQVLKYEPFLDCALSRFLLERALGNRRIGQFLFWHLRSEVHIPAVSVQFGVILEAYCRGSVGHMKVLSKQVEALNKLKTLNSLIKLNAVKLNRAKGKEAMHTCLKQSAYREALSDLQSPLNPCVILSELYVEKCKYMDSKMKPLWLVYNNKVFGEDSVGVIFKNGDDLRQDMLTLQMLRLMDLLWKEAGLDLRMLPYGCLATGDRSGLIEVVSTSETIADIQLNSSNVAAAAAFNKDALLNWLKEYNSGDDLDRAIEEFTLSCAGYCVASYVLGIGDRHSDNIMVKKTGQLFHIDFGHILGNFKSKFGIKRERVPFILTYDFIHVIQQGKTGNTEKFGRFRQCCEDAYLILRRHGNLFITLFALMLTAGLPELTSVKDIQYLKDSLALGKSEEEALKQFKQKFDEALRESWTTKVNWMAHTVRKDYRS
T1 sequence (P27986 whole entry partner): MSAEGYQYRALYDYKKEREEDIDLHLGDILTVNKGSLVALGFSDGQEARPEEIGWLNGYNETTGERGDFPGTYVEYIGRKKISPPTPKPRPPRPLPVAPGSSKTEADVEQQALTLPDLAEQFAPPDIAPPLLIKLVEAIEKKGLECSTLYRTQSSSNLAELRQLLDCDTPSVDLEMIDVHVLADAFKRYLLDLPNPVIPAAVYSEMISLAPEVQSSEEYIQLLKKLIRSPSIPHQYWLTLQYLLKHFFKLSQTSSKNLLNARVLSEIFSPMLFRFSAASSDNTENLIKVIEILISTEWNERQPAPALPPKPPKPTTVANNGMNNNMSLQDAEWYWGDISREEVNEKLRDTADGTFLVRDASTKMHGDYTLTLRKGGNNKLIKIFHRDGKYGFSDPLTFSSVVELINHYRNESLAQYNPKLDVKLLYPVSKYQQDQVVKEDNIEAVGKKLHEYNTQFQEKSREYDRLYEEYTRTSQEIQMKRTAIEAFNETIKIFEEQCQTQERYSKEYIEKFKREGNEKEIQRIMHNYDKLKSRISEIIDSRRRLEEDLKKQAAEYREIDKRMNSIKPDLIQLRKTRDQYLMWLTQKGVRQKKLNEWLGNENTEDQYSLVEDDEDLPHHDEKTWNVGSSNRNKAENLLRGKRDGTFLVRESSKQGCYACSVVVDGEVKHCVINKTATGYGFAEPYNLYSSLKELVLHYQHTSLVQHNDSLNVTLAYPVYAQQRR
Method: (§1) Full length p110 subunits of PI3K α, β and δ, N-terminally labeled with polyHis tag, were co-expressed with p85 in baculovirus expression vectors in sf9 insect cells. P110/p85 heterodimers were purified by sequential Ni-NTA, Q-HP, and Superdex-100 chromatography. Purified α, β and δ isozymes were stored at −20° C. in 20 mM Tris, pH 8, 0.2M NaCl, 50% glycerol, 5 mM DTT, 2 mM Na cholate.
(§2) PI3K enzyme assays (alpha, beta, delta and gamma) were performed in 25 mL with the above final concentrations of components in white polypropylene plates (Costar catalogue #3355). Phosphatidyl inositol phosphoacceptor, PtdIns(4,5)P2 (eg. P4508) was obtained from Echelon Biosciences. The ATPase activity of the alpha and gamma isozymes was not greatly stimulated by PtdIns(4,5)P2 under these conditions and was therefore omitted from the assay of these isozymes. Test compounds were dissolved in DMSO and diluted with three-fold serial dilutions. The compound in DMSO (1 μL) was added per test well, and the inhibition relative to reactions containing no compound, with and without enzyme was determined. After assay incubation at RT, the reaction was stopped and residual ATP determined by addition of an equal volume of a commercial ATP bioluminescence kit (Perkin Elmer EasyLite) according to the manufacturer's instructions, and detected using an Analyst GT luminometer.

[1] = system: phosphorylation of Serine 473 in Akt, HCT 116 human colon carcinoma cells; assay: Cell-based phospho-AKT Ser473 assay (MSD sandwich immunoassay, IGF-1 stimulated); conditions: Homo sapiens, HCT-116, HCT 116 cells; read-out: HCT 116 pAKT IC50
Method: This assay determines the ability of test compounds to inhibit the phosphorylation of […] in Akt using a MSD based sandwich immunoassay (Meso Scale Detection, catalogue # N411CAB-1). […] Prior to the assay cells were detached from the culture flask with trypsin, and re-suspended in complete media to give a final concentration of 1.6×10^5 cells per ml. Aliquots (100 μl) of the HCT116 cell suspension were seeded into each well of a 96 well tissue culture plate (Corning Incorporated COSTAR, catalogue#3595) to give a final density of 16,000 cells per well. Cells were then incubated overnight at 37° C. The following day the cells were treated with serially diluted test compounds and incubated for 2 hours at 37° C. […] As a maximum response control, wells contained 0.5% DMSO in place of test compound. The plates were mixed at 700 rpm for 2 min to ensure even distribution of the test compound and incubated for 2 hours at 37° C. Cells were then stimulated with insulin-like growth factor 1 (Sigma, product #13769) at final concentration of 100 ng/ml for 15 minutes at 37° C. The media was then removed and the cells treated with 80 μl cell-lysis buffer (MSD) containing a cocktail of protease and phosphatase inhibitors for one hour at 4° C. […] The detection antibody was removed and plates were then washed four times with 200 μl per well of Tris wash buffer. An aliquot of 150 μl of diluted MSD read buffer was then applied to each well, and the electrochemiluminescent signal was measured using a MSD SECTORTM plate reader. This instrument measures the intensity of emitted light to determine a quantitative measure of phosphorylated Akt in each well. The dose-response data obtained with each compound were analyzed and the IC50 inhibition of Akt phosphorylation at Ser473 calculated.

PI3K α = biological target: T2, PI3K α (Homo sapiens, UniProt P42336); assay: In vitro PI3 kinase enzyme assay (alpha), ATP loss, bioluminescence; type: biochemical; conditions: read-out: PI3Kα ATP loss IC50;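 also: purified p110α/p85 heterodimer acting on PtdIns(4,5)P2 at room temperature, remaining ATP read by luminescence, inhibition scaled between compound-free wells with and without enzyme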
T2 construct: Full length p110 subunits of PI3K α, β and δ, N-terminally labeled with polyHis tag; polyHis (N); made in house; host or cells: Sf9 insect cells (baculovirus)
T2 sequence (P42336 whole entry, species assumed): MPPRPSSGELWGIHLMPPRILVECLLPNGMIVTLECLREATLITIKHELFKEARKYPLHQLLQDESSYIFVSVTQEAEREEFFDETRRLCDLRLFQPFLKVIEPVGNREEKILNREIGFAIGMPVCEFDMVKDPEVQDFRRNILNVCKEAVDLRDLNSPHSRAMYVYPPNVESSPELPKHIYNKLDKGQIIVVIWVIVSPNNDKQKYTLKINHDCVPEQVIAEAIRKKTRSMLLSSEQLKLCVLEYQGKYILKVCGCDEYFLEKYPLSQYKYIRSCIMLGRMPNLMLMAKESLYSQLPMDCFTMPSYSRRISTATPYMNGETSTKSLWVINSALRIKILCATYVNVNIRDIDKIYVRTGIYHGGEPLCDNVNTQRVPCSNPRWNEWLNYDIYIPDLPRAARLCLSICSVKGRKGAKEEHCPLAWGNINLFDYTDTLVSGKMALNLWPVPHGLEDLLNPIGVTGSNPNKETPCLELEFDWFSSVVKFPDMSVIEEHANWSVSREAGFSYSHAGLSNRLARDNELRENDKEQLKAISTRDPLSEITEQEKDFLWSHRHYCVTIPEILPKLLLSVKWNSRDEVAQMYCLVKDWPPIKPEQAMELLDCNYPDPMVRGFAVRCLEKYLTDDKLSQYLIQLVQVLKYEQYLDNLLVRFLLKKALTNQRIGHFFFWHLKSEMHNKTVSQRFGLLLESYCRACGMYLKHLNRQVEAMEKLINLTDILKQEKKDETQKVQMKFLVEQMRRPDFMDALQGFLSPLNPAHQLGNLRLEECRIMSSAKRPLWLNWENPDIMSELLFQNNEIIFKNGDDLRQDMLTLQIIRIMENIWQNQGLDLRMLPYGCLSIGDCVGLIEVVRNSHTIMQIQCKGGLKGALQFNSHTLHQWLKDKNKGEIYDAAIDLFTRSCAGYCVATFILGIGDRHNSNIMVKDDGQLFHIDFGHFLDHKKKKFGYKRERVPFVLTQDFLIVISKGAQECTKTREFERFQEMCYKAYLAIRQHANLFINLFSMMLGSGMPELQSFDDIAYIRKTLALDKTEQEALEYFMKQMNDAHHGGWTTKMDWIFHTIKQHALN
T2 sequence (P27986 whole entry partner, species assumed): as the sequence (P27986 whole entry partner) above
Method: as §1, §2

IC50 (PI3K β)	IC50 [1]	IC50 (PI3K α)	Structure (SMILES)
25100 nM	1050 nM	83.4 nM	CC(=O)Nc1nc2ccc(-c3ccnc(OCc4ccc5c(c4)OCO5)n3)cc2s1 [Example 40, N-(6-(2-(1,3-benzodioxol-5-ylmethoxy)-4-pyrimidinyl)-1,3-benzothiazol-2-yl)acetamide]
43000 nM	6180 nM	501 nM	CC(=O)Nc1nc2ccc(-c3ccnc(OCC(C)(C)C)n3)cc2s1 [Example 42, N-(6-(2-(2,2-dimethylpropoxy)-4-pyrimidinyl)-1,3-benzothiazol-2-yl)acetamide]
517 nM	1060 nM	104 nM	CC(=O)Nc1nc2ccc(-c3ccnc(O[C@H](C)c4ccccc4)n3)cc2s1 [Example 43, N-(6-(2-((1R)-1-phenylethoxy)-4-pyrimidinyl)-1,3-benzothiazol-2-yl)acetamide]
2730 nM	577 nM	97.9 nM	CC(=O)Nc1nc2ccc(-c3ccnc(OCCCc4ccncc4)n3)cc2s1 [Example 44, N-(6-(2-(3-(4-pyridinyl)propoxy)-4-pyrimidinyl)-1,3-benzothiazol-2-yl)acetamide]
18400 nM	1150 nM	696 nM	COCCNc1nccc(-c2ccc3nc(NC(C)=O)sc3c2)n1 [Example 47, N-(6-(2-((2-methoxyethyl)amino)-4-pyrimidinyl)-1,3-benzothiazol-2-yl)acetamide]
1450 nM	15300 nM	418 nM	CC(=O)Nc1nc2ccc(-c3ccnc(NCc4ccccc4)n3)cc2s1 [Example 49, N-(6-(2-(benzylamino)-4-pyrimidinyl)-1,3-benzothiazol-2-yl)acetamide]
> 40000 nM	952 nM	505 nM	COc1nccc(-c2ccc3nc(NC(C)=O)sc3c2)n1 [Example 51, N-(6-(2-methoxy-4-pyrimidinyl)-1,3-benzothiazol-2-yl)acetamide]
402 nM	> 5000 nM	254 nM	CNC(=O)Nc1nc2ccc(-c3ccnc(OCc4ccccc4)n3)cc2s1 [Example 56, 1-(6-(2-(benzyloxy)-4-pyrimidinyl)-1,3-benzothiazol-2-yl)-3-methylurea]
5210 nM	2580 nM	29.9 nM	COc1ccc(Sc2ncc(-c3ccc4nc(NC(C)=O)sc4c3)s2)cc1 [Example 62, N-(6-(2-(4-methoxyphenylthio)thiazol-5-yl)benzo[d]thiazol-2-yl)acetamide]
5610 nM	2020 nM	258 nM	CC(=O)Nc1nc2ccc(-c3cccc(S(=O)(=O)c4ccc(F)cc4)n3)cc2s1 [Example 66, N-(6-(6-(4-Fluorophenylsulfonyl)pyridin-2-yl)benzo[d]thiazol-2-yl)acetamide]
676 nM	664 nM	86.5 nM	COc1ccc(S(=O)(=O)c2cccc(-c3ccc4nc(NC(C)=O)sc4c3)n2)cc1 [Example 68, N-(6-(6-(4-Methoxyphenylsulfonyl)pyridin-2-yl)benzo[d]thiazol-2-yl)acetamide]
284 nM	296 nM	46.5 nM	COc1cccc(S(=O)(=O)c2cccc(-c3ccc4nc(NC(C)=O)sc4c3)n2)c1 [Example 69, N-(6-(6-((3-methoxyphenyl)sulfonyl)-2-pyridinyl)-1,3-benzothiazol-2-yl)acetamide]
149 nM	320 nM	60.6 nM	CC(=O)Nc1nc2ccc(-c3cccc(NS(=O)(=O)c4ccccc4F)n3)cc2s1 [Example 73, N-(6-(6-(2-Fluorophenylsulfonamido)pyridin-2-yl)benzo[d]thiazol-2-yl)acetamide]
338 nM	221 nM	82.5 nM	CC(=O)Nc1nc2ccc(-c3cccc(N(C)S(=O)(=O)c4ccccc4)n3)cc2s1 [Example 75, N-(6-(6-(methyl(phenylsulfonyl)amino)-2-pyridinyl)-1,3-benzothiazol-2-yl)acetamide]
62 nM	408 nM	34.3 nM	CC(=O)Nc1nc2ccc(-c3ccnc(NS(=O)(=O)c4ccc(C)cc4)n3)cc2s1 [Example 83, N-(6-(2-(((4-methylphenyl)sulfonyl)amino)-4-pyrimidinyl)-1,3-benzothiazol-2-yl)acetamide]
79.3 nM	174 nM	21.8 nM	CCc1ccc(S(=O)(=O)Nc2nccc(-c3ccc4nc(NC(C)=O)sc4c3)n2)cc1 [Example 84, N-(6-(2-(((4-ethylphenyl)sulfonyl)amino)-4-pyrimidinyl)-1,3-benzothiazol-2-yl)acetamide]
82.6 nM	917 nM	20.1 nM	COc1cccc(S(=O)(=O)Nc2nccc(-c3ccc4nc(NC(C)=O)sc4c3)n2)c1 [Example 85, N-(6-(2-(((3-methoxyphenyl)sulfonyl)amino)-4-pyrimidinyl)-1,3-benzothiazol-2-yl)acetamide]
79.1 nM	68.8 nM	39.3 nM	COc1ccc(S(=O)(=O)N(C)c2nccc(-c3ccc4nc(NC(C)=O)sc4c3)n2)cc1 [Example 88, N-(6-(2-(4-Methoxy-N-methylphenylsulfonamido)pyrimidin-4-yl)benzo[d]thiazol-2-yl)acetamide]
237 nM	310 nM	181 nM	CC(=O)Nc1nc2ccc(-c3ccnc(N(C)S(=O)(=O)c4ccccc4)n3)cc2s1 [Example 91, N-(6-(2-(methyl(phenylsulfonyl)amino)-4-pyrimidinyl)-1,3-benzothiazol-2-yl)acetamide]
174 nM	218 nM	102 nM	CC(=O)Nc1nc2ccc(-c3ccnc(N(C)S(=O)(=O)c4cccc(C)c4)n3)cc2s1 [Example 93, N-(6-(2-(N,3-Dimethylphenylsulfonamido)pyrimidin-4-yl)benzo[d]thiazol-2-yl)acetamide]
1240 nM	2530 nM	220 nM	CC(=O)Nc1nc2ccc(-c3ccnc(OCc4ccc(C)cc4)n3)cc2s1 [Example 106, N-(6-(2-((4-methylbenzyl)oxy)-4-pyrimidinyl)-1,3-benzothiazol-2-yl)acetamide]
836 nM	1210 nM	181 nM	CC(=O)Nc1nc2ccc(-c3ccnc(OCc4cccc(C)c4)n3)cc2s1 [Example 107, N-(6-(2-((3-methylbenzyl)oxy)-4-pyrimidinyl)-1,3-benzothiazol-2-yl)acetamide]
292 nM	682 nM	96.7 nM	COc1cccc(COc2nccc(-c3ccc4nc(NC(C)=O)sc4c3)n2)c1 [Example 108, N-(6-(2-((3-methoxybenzyl)oxy)-4-pyrimidinyl)-1,3-benzothiazol-2-yl)acetamide]
10.6 nM	31.4 nM	3.8 nM	CC(=O)Nc1nc2ccc(-c3cnc(C)c(NS(=O)(=O)c4ccccc4)c3)cc2s1 [Example 110, N-(6-(6-methyl-5-(phenylsulfonamido)pyridin-3-yl)benzo[d]thiazol-2-yl)acetamide]
13.1 nM	25.5 nM	4.1 nM	CC(=O)Nc1nc2ccc(-c3cnc(C)c(NS(=O)(=O)c4ccc(F)cc4)c3)cc2s1 [Example 111, N-(6-(5-(((4-fluorophenyl)sulfonyl)amino)-6-methyl-3-pyridinyl)-1,3-benzothiazol-2-yl)acetamide]
9.1 nM	16.9 nM	5.5 nM	CC(=O)Nc1nc2ccc(-c3cnc(C)c(NS(=O)(=O)c4ccccc4F)c3)cc2s1 [Example 112, N-(6-(5-(((2-fluorophenyl)sulfonyl)amino)-6-methyl-3-pyridinyl)-1,3-benzothiazol-2-yl)acetamide]
13 nM	6.7 nM	6.4 nM	CC(=O)Nc1nc2ccc(-c3cnc(C)c(NS(=O)(=O)c4cccc(C(F)(F)F)c4)c3)cc2s1 [Example 113, N-(6-(6-methyl-5-(((3-(trifluoromethyl)phenyl)sulfonyl)amino)-3-pyridinyl)-1,3-benzothiazol-2-yl)acetamide]
8.9 nM	14.4 nM	7 nM	CC(=O)Nc1nc2ccc(-c3cnc(C)c(NS(=O)(=O)c4ccc(C(C)(C)C)cc4)c3)cc2s1 [Example 114, N-(6-(5-(((4-tert-butylphenyl)sulfonyl)amino)-6-methyl-3-pyridinyl)-1,3-benzothiazol-2-yl)acetamide]

Structure (SMILES)	IC50 (PI3K β)	IC50 [1]	IC50 (PI3K α)
CC(=O)Nc1nc2ccc(-c3ccnc(NS(=O)(=O)c4ccccc4)n3)cc2s1 [Example 77, N-(6-(2-(Phenylsulfonamido)pyrimidin-4-yl)benzo[d]thiazol-2-yl)acetamide]	543 nM	2350 nM	84.8 nM
